From US7115621B2, “Chemical compounds” (Lilly Icos LLC, priority 2001, dated 2006)
pIC50: −log10 of the molar value.

Tests used:
recombinant human PDE5 = recombinant human PDE5 (Homo sapiens, UniProt O76074); test: Inhibitory effect on cGMP-PDE, one-step assay, human recombinant PDE5; format: biochemical; settings: Table 1, Examples
Procedure: The compounds of structural formula (I) were tested for an ability to inhibit PDE5. The ability of a compound to inhibit PDE5 activity is related to the IC50 value for the compound, i.e., the concentration of inhibitor required for 50% inhibition of enzyme activity. The IC50 value for compounds of structural formula (I) were determined using recombinant human PDE5.
Recombinant production of human PDE1B, PDE2, PDE4A, PDE4B, PDE4C, PDE4D, PDE5, and PDE7 was carried out similarly to that described in Example 7 of U.S. Pat. No. 5,702,936, incorporated herein by reference, except that the yeast transformation vector employed, which is derived from the basic ADH2 plasmid described in Price et al., Methods in Enzymology, 185, pp. 308–318 (1990), incorporated yeast ADH2 promoter and terminator sequences and the Saccharomyces cerevisiae host was the protease-deficient strain BJ2-54 deposited on Aug. 31, 1998 with the American Type Culture Collection, Manassas, Virginia, under accession number ATCC 74465. Transformed host cells were grown in 2×SC-leu medium, pH 6.2, with trace metals, and vitamins. After 24 hours, YEP medium-containing glycerol was added to a final concentration of 2×YET/3% glycerol. Approximately 24 hr later, cells were harvested, washed, and stored at −70° C.
Phosphodiesterase activity of the preparations was determined as follows. PDE assays utilizing a charcoal separation technique were performed essentially as described in Loughney et al. (1996). In this assay, PDE activity converts [32P]cAMP or [32P]cGMP to the corresponding [32P]5′-AMP or [32P]5′-GMP in proportion to the amount of PDE activity present. The [32P]5′-AMP or [32P]5′-GMP then was quantitatively converted to free [32P]phosphate and unlabeled adenosine or guanosine by the action of snake venom 5′-nucleotidase. […] The assay was performed at 30° C. in a 100 μL reaction mixture containing (final concentrations) 40 mM Tris HCl (pH 8.0), 1 μM ZnSO4, 5 mM MgCl2, and 0.1 mg/mL bovine serum albumin (BSA). PDE enzyme was present in quantities that yield <30% total hydrolysis of substrate (linear assay conditions). The assay was initiated by addition of substrate (1 mM [32P]cAMP or cGMP), and the mixture was incubated for 12 minutes. Seventy-five (75) μg of Crotalus atrox venom then was added, and the incubation was continued for 3 minutes (15 minutes. total). The reaction was stopped by addition of 200 μL of activated charcoal (25 mg/mL suspension in 0.1 M NaH2PO4, pH 4). After centrifugation (750×g for 3 minutes) to sediment the charcoal, a sample of the supernatant was taken for radioactivity determination in a scintillation counter and the PDE activity was calculated.
Cell pellets (29 g) were thawed on ice with an equal volume of Lysis Buffer (25 mM Tris HCl, pH 8, 5 mM MgCl2, 0.25 mM DTT, 1 mM benzamidine, and 10 μM ZnSO4). Cells were lysed in a Microfluidizer® (Microfluidics Corp.) using nitrogen at 20,000 psi. The lysate was centrifuged and filtered through 0.45 μm disposable filters. The filtrate was applied to a 150 mL column of Q SEPHAROSE® FastFlow (Pharmacia). The column was washed with 1.5 volumes of Buffer A (20 mM Bis-Tris Propane, pH 6.8, 1 mM MgCl2, 0.25 mM DTT, 10 μM ZnSO4) and eluted with a step gradient of 125 mM NaCl in Buffer A followed by a linear gradient of 125–1000 mM NaCl in Buffer A. Active fractions from the linear gradient were applied to a 180 mL hydroxyapatite column in Buffer B (20 mM Bis-Tris Propane (pH 6.8), 1 mM MgCl2, 0.25 mM DTT, 10 μM ZnSO4, and 250 mM KCl). After loading, the column was washed with 2 volumes of Buffer B and eluted with a linear gradient of 0–125 mM potassium phosphate in Buffer B. Active fractions were pooled, precipitated with 60% ammonium sulfate, and resuspended in Buffer C (20 mM Bis-Tris Propane, pH 6.8, 125 mM NaCl, 0.5 mM DTT, and 10 μM ZnSO4). The pool was applied to a 140 mL column of SEPHACRYL® S-300 HR and eluted with Buffer C. Active fractions were diluted to 50% glycerol and stored at −20° C. […]

PDE5 (bovine aorta) = molecular target: T1, PDE5 (bovine aorta) (Bos taurus, UniProt Q28156); test: Inhibitory effect on cGMP-PDE, one-step assay, enzyme from bovine aorta; format: biochemical; settings: Table 1, Examples; footnote 1) vs. bovine aorta
T1 construct: from tissue; host or cells: bovine aorta

Row | SMILES | melting point [°C] | pIC50 (recombinant human PDE5) | pIC50 (PDE5 (bovine aorta))
1 | CN(C)C(=O)[C@H]1Cc2c([nH]c3ccccc23)[C@@H](c2ccc3c(c2)OCO3)N1C(=O)/C=C/c1ccccc1 [Example 1, (1R,3R)-1-benzo[1,3]dioxol-5-yl-2-(3-phenylacryloyl)-2,3,4,9-tetrahydro-1H-β-carboline-3-carboxylic acid dimethylamide] | 175 to 178 | 7.36 | 
2 | COC(=O)[C@H]1Cc2c([nH]c3ccccc23)[C@@H](c2ccc3c(c2)OCO3)N1C(=O)Oc1ccc([N+](=O)[O-])cc1 [Example 3, (−)-(1R,3R)-1-Benzo[1,3]dioxol-5-yl-1,3,4,9-tetrahydro-beta-carboline-2,3-dicarboxylic acid 3-methyl ester 2-(4-nitrophenyl)ester] | 175 to 187 | 6.62 | 
3 | CCCCNC(=O)N1[C@@H](c2cccnc2)c2[nH]c3ccccc3c2C[C@H]1C(=O)OCC [Example 4] |  |  | 6.70
4 | COC(=O)CN1[C@@H](c2ccc(OC)cc2)c2[nH]c3ccccc3c2C[C@H]1C(=O)NCc1ccccc1 [Example 5] |  |  | 6.31
5 | COC(=O)[C@@H]1Cc2c([nH]c3ccccc23)[C@H](c2ccc3c(c2)OCO3)N1C [Example 6] |  | 6.64 | 
6 | COc1ccc([C@@H]2c3[nH]c4ccccc4c3C[C@@H](C(=O)NCc3ccccc3)N2C(C)=O)cc1 [Example 7] |  |  | 6.00
7 | CCCNC(=O)[C@H]1Cc2c([nH]c3ccccc23)[C@@H](c2ccc3c(c2)OCO3)N1C(C)=O [Example 8, (1R)-(+)-2-acetyl-1-benzo[1,3]dioxol-5-yl-2,3,4,9-tetrahydro-1H-β-carboline-3-carboxylic acid propylamide] | 163 to 165 | 6.30 | 
8 | CC(=O)N1[C@H](c2ccc3c(c2)OCO3)c2[nH]c3ccccc3c2C[C@@H]1C(=O)N1CCOCC1 [Example 9, (1R)-(+)-1-[benzo[1,3]dioxol-5-yl-3-(morpholine-4-carbonyl)-1,3,4,9-tetrahydro-β-carbolin-2-yl]-ethanone] |  | 6.58 | 
9 | CCCCNC(=O)[C@H]1Cc2c([nH]c3ccccc23)[C@@H](c2ccc3c(c2)OCO3)N1C(=O)/C=C/c1ccccc1 [Example 11, (1R,3R)-(+)-1-benzo[1,3]dioxol-5-yl-2-(3-phenylacryloyl)-2,3,4,9-tetrahydro-1H-β-carboline-3-carboxylic acid butylamide] | 114 to 117 | 6.20 | 
10 | CNC(=O)[C@H]1Cc2c([nH]c3ccccc23)[C@@H](c2ccc3c(c2)OCO3)N1C(=O)/C=C/c1ccccc1 [Example 12] |  | 7.52 | 
11 | CNC(=O)[C@H]1Cc2c([nH]c3ccccc23)[C@@H](c2ccc3c(c2)OCO3)N1C(=O)/C=C/c1ccc(Cl)cc1 [Example 13] |  | 6.38 | 
